From patent US20170022201A1, “MACROCYLIC PYRIDINE DERIVATIVES” (Janssen Pharmaceutica NV, priority 2014, published 2017) come the findings set out here.

Data set [1] deals with T1, EF2K (Homo sapiens, UniProt O00418).
T1 construct: host or cells: LN-229 glioblastoma cell lysate
T1 sequence (O00418 1-725): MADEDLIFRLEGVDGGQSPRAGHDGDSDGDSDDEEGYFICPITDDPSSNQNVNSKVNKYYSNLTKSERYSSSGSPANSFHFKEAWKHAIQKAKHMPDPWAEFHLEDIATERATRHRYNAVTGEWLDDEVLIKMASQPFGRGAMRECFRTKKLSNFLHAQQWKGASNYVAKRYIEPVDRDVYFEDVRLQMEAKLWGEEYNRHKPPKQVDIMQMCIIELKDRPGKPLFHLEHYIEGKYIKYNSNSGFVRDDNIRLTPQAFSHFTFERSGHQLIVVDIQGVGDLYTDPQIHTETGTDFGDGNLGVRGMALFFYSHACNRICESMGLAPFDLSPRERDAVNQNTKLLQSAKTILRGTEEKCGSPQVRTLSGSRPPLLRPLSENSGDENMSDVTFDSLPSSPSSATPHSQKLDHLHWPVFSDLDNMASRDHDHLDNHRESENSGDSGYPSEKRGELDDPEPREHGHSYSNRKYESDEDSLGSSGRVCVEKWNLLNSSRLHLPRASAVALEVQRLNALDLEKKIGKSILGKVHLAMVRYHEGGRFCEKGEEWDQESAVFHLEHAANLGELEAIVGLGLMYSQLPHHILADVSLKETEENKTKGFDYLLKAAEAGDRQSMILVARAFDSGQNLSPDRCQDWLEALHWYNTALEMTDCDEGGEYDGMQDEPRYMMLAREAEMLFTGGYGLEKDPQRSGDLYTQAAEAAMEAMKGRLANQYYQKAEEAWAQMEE
The data set can be described thus: Biochemical EF2K lysate-based kinase assay (AlphaLISA p-eEF2 Thr56). The conditions noted are these: LN-229 cell lysates, 10 mM ATP, pH 6.6; pIC50 = -log IC50 (M); read-out: eEF2K_C_alphalisa pIC50 (converted). In a few lines:
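LN-229 glioblastoma lysate supplied both EF2K and eEF2 substrate; compound incubated with lysate 15 minutes at room temperature at pH 6.6 with 10 mM Mg2+ and 10 mM ATP, then stopped with excess EDTA. Thr56-phosphorylated eEF2 detected by sandwich AlphaLISA, final read after overnight standing.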

The target in data set [2] is T2, eEF2K (Homo sapiens, UniProt O00418).
T2 construct: in the immortalized epithelial breast cell lines, MCF10A; host or cells: MCF10A immortalized breast epithelial cells
T2 sequence (O00418 1-725): T1 sequence (O00418 1-725)
The data set can be described thus: EF2K cell-based assay (P-EF2 AlphaLISA, 2-deoxyglucose stimulated MCF10A cells). To be noted: 2.5 mM 2-deoxyglucose 4 h, phosphorylation of EF2 at Thr 56, pIC50 = -log IC50 (M), read-out: eEF2K_C_PThr56 pIC50 (converted). In a few lines: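 MCF10A cells pretreated with compound for 1 h, then stimulated with 2.5 mM 2-deoxyglucose for 4 h to deplete ATP and activate AMPK. Phospho-EF2 in lysates measured by AlphaLISA.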

The target in data set [3] is PIK3C3 lipid kinase (Homo sapiens, UniProt Q8NEB9). The data set can be described thus: Biochemical Vps34 lipid kinase assay (ADP-Glo). The conditions noted are these: 20 μM ATP; for remaining activity at 1 µM: 1 h, single dose 1 μM, residual activity compared to control (DMSO), read-out: VPS34_1microM_%ofcntrl; for IC50: serial dilution 10 μM to 0.3 nM, pIC50 = -log IC50 (M). Summed up: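 ADP-Glo luminescence measured PIK3C3 (7.6 nM) activity with 50 μM substrate, 20 μM ATP (apparent Km), 3 mM MnCl2, HEPES pH 7.5, 60 min at 30° C. Compounds tested at 1 μM single dose (residual activity vs DMSO) or half-log series 10 μM–0.3 nM giving pIC50.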
Chain of PIK3C3 lipid kinase (Q8NEB9 whole entry): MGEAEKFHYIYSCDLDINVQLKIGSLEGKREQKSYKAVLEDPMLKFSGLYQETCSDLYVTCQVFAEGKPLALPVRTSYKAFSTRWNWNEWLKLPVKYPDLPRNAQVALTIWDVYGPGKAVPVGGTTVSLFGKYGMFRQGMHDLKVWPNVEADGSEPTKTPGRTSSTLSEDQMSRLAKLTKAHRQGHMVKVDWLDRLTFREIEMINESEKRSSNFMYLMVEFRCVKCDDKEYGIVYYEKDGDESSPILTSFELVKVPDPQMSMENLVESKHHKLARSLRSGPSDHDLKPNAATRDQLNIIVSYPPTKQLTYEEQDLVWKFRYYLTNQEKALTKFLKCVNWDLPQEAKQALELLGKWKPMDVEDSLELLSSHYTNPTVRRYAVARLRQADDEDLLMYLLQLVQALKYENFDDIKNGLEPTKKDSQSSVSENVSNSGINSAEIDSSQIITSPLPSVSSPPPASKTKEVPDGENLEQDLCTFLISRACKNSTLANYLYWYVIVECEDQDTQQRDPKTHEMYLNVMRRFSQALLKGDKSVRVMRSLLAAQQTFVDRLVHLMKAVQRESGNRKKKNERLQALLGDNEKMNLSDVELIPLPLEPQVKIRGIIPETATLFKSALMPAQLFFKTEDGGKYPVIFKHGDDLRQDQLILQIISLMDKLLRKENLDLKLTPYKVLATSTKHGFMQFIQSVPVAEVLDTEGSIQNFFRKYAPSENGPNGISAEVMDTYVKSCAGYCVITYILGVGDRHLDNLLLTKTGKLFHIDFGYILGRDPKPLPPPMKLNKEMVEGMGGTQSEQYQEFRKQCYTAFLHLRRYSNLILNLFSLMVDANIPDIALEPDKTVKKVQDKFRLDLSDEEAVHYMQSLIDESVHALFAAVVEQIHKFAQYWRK

The structures appear in SMILES notation.

In the case of `O=C1CN2CCN(Cc3cccc(c3)Nc3cc(ccn3)-c3cnc(nc3)NCCCN1)C(CO)C2` (single isomer, unassigned) [Compound 7], the melting point lay in the range of 267.8 to 267.9 °C. The IC50 in data set [1] was 1.12e-07 M. Further, the IC50 in data set [2] is 1.62e-05 M. Moreover, in data set [3], the remaining activity at 1 µM came to 12.5% and the IC50 was 1.07e-07 M.
With `COCCCN1CCCN(C)C(=O)CN2CCN(CC2)Cc2cccc(c2)Nc2cc(ccn2)-c2cnc1nc2` [Compound 14], the melting point was 240 °C. In data set [1], the IC50 is greater than 3.02e-05 M. In data set [2], the IC50 is greater than 3.02e-05 M. Also, the remaining activity at 1 µM in data set [3] was 50.4%.
The molecule `COCCN1CCN(C)C(=O)CN2CCN(CC2)Cc2cccc(c2)Nc2cc(ccn2)-c2cnc1nc2` [Compound 15] displayed a melting point of 240 °C. In addition, the IC50 in data set [1] is greater than 3.02e-05 M. In addition, in data set [2], the IC50 is greater than 3.02e-05 M. Besides, the remaining activity at 1 µM in data set [3] is 67%.
In the case of `O=C1CN2CCN(CC2)Cc2cccc(c2)Nc2cc(ccn2)-c2ccc(nc2)NCCN1` [Compound 70], the melting point is 252 °C. Also, the IC50 in data set [1] was 5.62e-06 M. Besides, the IC50 in data set [2] was greater than 3.02e-05 M. Also, in data set [3], the remaining activity at 1 µM is 72.6%.
Taken in the same sequence, the figures for `CC1CN2CCN1Cc1cccc(c1)Nc1cc(ccn1)-c1ccc(nc1)NCCCNC(=O)C2` (stereo not drawn) [Compound 71] were 162 °C, 3.31e-07 M, 2.45e-05 M and 32.1%.
In turn, `O=C1CN2CCC(CC2)Nc2cccc(c2)Nc2cc(ccn2)-c2cnc(nc2)NCCCN1` [Compound 106] registered a melting point of 255.3 to 256.8 °C. In addition, the IC50 in data set [1] was 7.59e-07 M. Besides, the IC50 in data set [2] was 2.88e-05 M. In data set [3], the remaining activity at 1 µM turned out to be 22.4% and the IC50 was 5.89e-07 M.
Turning to `O=C1CN2CCN(CC2)Cc2cccc(c2)Nc2cc(ccn2)-c2cnc(nc2)CN(CC2CC2)CCN1` [Compound 128], the IC50 in data set [1] was 2.88e-07 M; in data set [2] it was 4.17e-07 M. In addition, the remaining activity at 1 µM in data set [3] was determined as 74.5%.
Take `C=CCN1CCNC(=O)CN2CCN(CC2)Cc2cccc(c2)Nc2cc(ccn2)-c2cnc(nc2)C1` [Compound 130]: the IC50 in data set [1] was 1e-06 M; in data set [2] it was 1.58e-06 M. In data set [3], the remaining activity at 1 µM amounted to 57%.
For the molecule `O=C1CN2CCN(CC2)Cc2cccc(c2)Nc2cc(ccn2)-c2cnc(nc2)CN(C(=O)C2CC2)CCN1` [Compound 131], the IC50 in data set [1] is 6.17e-08 M; in data set [2], 2.51e-06 M. For the same molecule, the remaining activity at 1 µM in data set [3] was 56.2%.
For the molecule `O=C1CN2CCC(CC2)Cc2cccc(c2)Nc2cc(ccn2)-c2ccc(nc2)NCCCN1` [Compound 140], the values for the IC50 in data set [1] and in data set [2] were 3.8e-06 M and 8.51e-06 M, respectively. Also, the remaining activity at 1 µM in data set [3] is 46.4%.
Turning to `O=C1CNCCNc2ccc(cn2)-c2ccnc(c2)Nc2cccc(c2)CN2CCN1CC2` [Compound 144], the melting point was 143 °C. For the same molecule, the IC50 in data set [1] is roughly 1.51e-05 M. Moreover, the IC50 in data set [2] is greater than 3.02e-05 M. The remaining activity at 1 µM in data set [3] came to 53.7%.
In the case of `O=C1CN2CCN(CC2)Cc2cccc(c2)Nc2cc(ccn2)-c2ccc(nc2)CN(CC2CC2)CCN1` [Compound 146], the IC50 is 3.89e-08 M in data set [1] and 6.61e-07 M in data set [2]. For the same molecule, the remaining activity at 1 µM in data set [3] is 54.6%.
